Measurements published in patent US20070082934A1, “Substituted 4-aryloxy and 4-arylsulfanyl-phenyl-2-aminothiazoles as inhibitors of cell proliferation” (priority 2003, published 2007).
Entries after “also recorded” stand apart in the source; their conditions may differ. Where two headings read alike, the source gives them in different places.

Columns and labels:
MCF7 cells = assay: Inhibition of breast cell proliferation, SRB assay, 48 hour incubation; type: cell-based, human; conditions: for inhibition at 100 µM: Homo sapiens
Method: MCF7 cells were treated with compounds or vehicle (DMSO). […] Percent inhibition of growth at 100 μM was determined and GI50 values were calculated from log-dose response curves as previously described ([…] et al., Cancer Res., 2003, 63:3211-3220).

BT-549 = assay: NCI anti-tumor screen, SRB assay, 48 hour exposure; type: cell-based, human; conditions: BT-549 breast cancer cell line
Method: (§1) Compounds were tested at the National Cancer Institute's Developmental Therapeutics Program, in duplicate, against 60 human tumor cell lines at a minimum of five concentrations at 10-fold dilutions: A 48 hour continuous drug exposure protocol was used, and a sulforhodamine B (SRB) protein assay was used to estimate cell viability or growth.
(§2) Upon completion of the synthesis, the thiazole compounds 17-24 and 27-30 were submitted to the NCI's antitumor screen (see Monks et al., J. Natl. Cancer Inst., 1991, 83:757b 766; Bray and Wickstrom, Biotechniques, 1996, 21:5:780-782) and the results against human breast cancer cell lines are shown in Table 2 as GI50 values.

HS 578T = assay: NCI anti-tumor screen, SRB assay, 48 hour exposure; type: cell-based, human; conditions: estrogen-negative HS 578T cell line
Method: as §1, §2

MDA-MB-231/ATCC = assay: NCI anti-tumor screen, SRB assay, 48 hour exposure; type: cell-based, human; conditions: MDA-MB-231/ATCC breast cancer cell line
Method: as §1, §2

MCF7 = assay: NCI anti-tumor screen, SRB assay, 48 hour exposure; type: cell-based, human; conditions: MCF7 breast cancer cell line
Method: as §1, §2

T-47D = assay: NCI anti-tumor screen, SRB assay, 48 hour exposure; type: cell-based, human; conditions: estrogen-positive cell line T-47D
Method: as §1, §2

MDA-MB-435 = assay: NCI anti-tumor screen, SRB assay, 48 hour exposure; type: cell-based, human; conditions: estrogen-negative cell line MDA-MB-435
Method: as §1, §2

NCI/ADR-RES = assay: NCI anti-tumor screen, SRB assay, 48 hour exposure; type: cell-based, human; conditions: adriamycin-resistant cell line
Method: as §1, §2

[1] = system: 60 human tumor cell lines; assay: NCI anti-tumor screen, all NCI cell lines; type: cell-based; conditions: NCI cell lines other than breast (FIG. 3)
Method: FIG. 3 is a graphic representation of a GI50 comparison for compound 17 (4-[4′-(4-Chlorophenoxy)-phenyl]-thiazol-2-yl ammonium iodide) for all NCI cell lines. The ordinate represents growth inhibitor activity and the abscissa indicates the type of tumor as well as each cell line treated with compound 17. L=leukemia; NSCLC Non-small cell lung cancer; C=Colon; CNS=central nervous system; M=Melanoma; O=Ovarian; R=Renal; P=Prostate; B=Breast.
as §1

[2] = system: human breast cancer cell lines; assay: NCI anti-tumor screen, breast cancer cell line panel as a whole; type: cell-based; conditions: for selectivity among breast cancer cell lines: comparison of GI50 values across cell lines; for growth inhibition of human breast tumor cells, in words: estrogen-positive and negative breast cancer cell lines
Method: as §1, §2

Compound | inhibition at 100 µM (MCF7 cells) [%] | GI50 (BT-549; Homo sapiens) [µM] | GI50 (HS 578T; Homo sapiens) [µM] | GI50 (MDA-MB-231/ATCC; Homo sapiens) [µM] | GI50 (MCF7; Homo sapiens) [µM] | GI50 (T-47D; Homo sapiens, T47D) [µM] | GI50 (MDA-MB-435; Homo sapiens) [µM] | GI50 (NCI/ADR-RES; Homo sapiens, NCI/ADR-RES) [µM] | % Inhibition of MCF7 cells at 100 μM (MCF7 cells) [%] | selectivity among breast cancer cell lines [2] | melting point [°C] | further results
Nc1nc(-c2ccc(Oc3ccccc3)cc2)cs1 [Compound 16, 4-(4′-Phenoxyphenyl)-thiazol-2-yl ammonium iodide] | 81 | – | – | – | – | – | – | – | – | – | – | –
I.Nc1nc(-c2ccc(Oc3ccc(Cl)cc3)cc2)cs1 [Compound 17, 4-[4′-(4-Chlorophenoxy)-phenyl]-thiazol-2-yl ammonium iodide] | 85 | > 100 | > 100 | > 100 | > 100 | 0.917 | > 100 | > 100 | – | – | – | activity against other types of cancer [1]: not effective against other types of cancer; GI50 ([2]; Homo sapiens, T47D, all breast cancer cell lines except T-47D, read-out: GI50 in all cell lines except T-47D): > 100 µM
I.Nc1nc(-c2ccc(Oc3cccc(Cl)c3)cc2)cs1 [Compound 18, 4-[4-(3′-Chlorophenoxy)-phenyl]-thiazol-2-yl ammonium iodide] | – | – | – | – | – | – | – | – | 100 | active only against estrogen receptor-negative breast cancer | – | GI50 (BT-549): 14.3 µM; GI50 (HS 578T): 19.7 µM; GI50 (MDA-MB-231/ATCC): 4.8 µM; GI50 (MCF7): 14.6 µM; GI50 (T-47D): 14 µM; GI50 (MDA-MB-435): 2.1 µM; GI50 (NCI/ADR-RES): 13.2 µM
I.Nc1nc(-c2ccc(Oc3ccccc3Cl)cc2)cs1 [Compound 19, 4-[4-(2′-Chlorophenoxy)-phenyl]-thiazol-2-yl ammonium iodide] | – | – | – | – | – | – | – | – | 87 | – | – | GI50 (BT-549): 12.8 µM; GI50 (MDA-MB-231/ATCC): 10.5 µM; GI50 (MCF7): 27.4 µM; GI50 (T-47D): 16.4 µM; GI50 (MDA-MB-435): 14.8 µM; GI50 (NCI/ADR-RES): 25.8 µM
I.Nc1nc(-c2ccc(Oc3ccc(Cl)c(Cl)c3)cc2)cs1 [Compound 20, 4-[4′-(3,4-Dichlorophenoxy)-phenyl]-thiazol-2-yl ammonium iodide] | 47 | 1.91 | 2 | 2.29 | 3.02 | 20.9 | 0.759 | 1.29 | – | selectivity for the adriamycin-resistant cell line | 202 to 205 | growth inhibition of human breast tumor cells, in words [2]: low micromolar growth inhibition of most human breast tumor cells; also recorded: low micromolar
COc1ccc(Oc2ccc(-c3csc(N)n3)cc2)cc1.I [Compound 21, 4-[4′-(4-Methoxyphenoxy)-phenyl]-thiazol-2-yl ammonium iodide] | 24 | – | – | – | – | – | – | – | – | – | 204 to 207 | –
Cc1ccc(Oc2ccc(-c3csc(N)n3)cc2)cc1.I [Compound 22, 4-[4′-(p-Toluoxy)phenyl]-thiazol-2-yl ammonium iodide] | 98 | – | 22.7 | 14.1 | 17.2 | 0.54 | 11.8 | 18.2 | – | – | 118 to 120 | –
I.Nc1nc(-c2ccc(Oc3ccc(-c4ccccc4)cc3)cc2)cs1 [Compound 23, 4-[4′-(Biphenyl-4-yloxy)-phenyl]-thiazol-2-yl ammonium iodide] | 53 | 10.4 | 18.8 | 12.6 | 14.3 | 3.91 | 18.6 | 17.4 | – | – | 253 to 254 | –
I.Nc1nc(-c2ccc(Oc3ccc(Oc4ccccc4)cc3)cc2)cs1 [Compound 24, 4-[4′-(4-Phenoxy-phenoxy)-phenyl]-thiazol-2-yl ammonium iodide] | 81 | 16.1 | 27.8 | 12.6 | 35.1 | 4.9 | 22.7 | 35.9 | – | – | 137 to 140 | –
CCOC(=O)c1cccc(Oc2ccc(-c3csc(N)n3)cc2)c1.I [Compound 25, 4-[4-(3′-Ethoxycarbonyl-phenoxy)-phenyl]-thiazol-2-yl ammonium iodide] | – | – | – | – | – | – | – | – | 84 | – | – | –
I.Nc1nc(-c2ccc(Sc3ccccc3)cc2)cs1 [Compound 26, 4-(4′-Phenylsulfanyl-phenyl)-thiazol-2-yl ammonium iodide] | 79 | – | – | – | – | – | – | – | – | – | 129 to 132 | –
I.Nc1nc(-c2ccc(Sc3ccc(Cl)cc3)cc2)cs1 [Compound 27, 4-[4-(4′-Chloro-phenylsulfanyl)-phenyl]-thiazol-2-yl ammonium iodide] | – | – | – | – | – | – | – | – | 89 | active only against estrogen receptor-negative breast cancer | – | GI50 (BT-549): 15.3 µM; GI50 (HS 578T): 18.8 µM; GI50 (MDA-MB-231/ATCC): 12.4 µM; GI50 (MCF7): 21.6 µM; GI50 (T-47D): 24.4 µM; GI50 (MDA-MB-435): 1.49 µM; GI50 (NCI/ADR-RES): 17.5 µM
I.Nc1nc(-c2ccc(Sc3ccc(Cl)c(Cl)c3)cc2)cs1 [Compound 28, 4-[4-(3′,4′-Dichloro-phenylsulfanyl)-phenyl]-thiazol-2-yl ammonium iodide] | – | – | – | – | – | – | – | – | 54 | selectivity for the adriamycin-resistant cell line | – | GI50 (BT-549): 5.95 µM; GI50 (MDA-MB-231/ATCC): 3.73 µM; GI50 (MCF7): 5.68 µM; GI50 (T-47D): 2.79 µM; GI50 (MDA-MB-435): 1.11 µM; GI50 (NCI/ADR-RES): 3.37 µM; GI50 ([2]; all breast cancer cell lines except HS 578T, read-out: GI50 values in all cell lines except HS 578T): 1 to 5 µM; growth inhibition of human breast tumor cells, in words [2]: low micromolar growth inhibition of most human breast tumor cells
COc1ccc(Sc2ccc(-c3csc(N)n3)cc2)cc1.I [Compound 29, 4-[4-(4′-Methoxy-phenylsulfanyl)-phenyl]-thiazol-2-yl ammonium iodide] | – | – | – | – | – | – | – | – | 11 | – | – | –
Cc1ccc(Sc2ccc(-c3csc(N)n3)cc2)cc1.I [Compound 30, 4-(4′p-Tolylsulfanyl-phenyl)-thiazol-2-yl ammonium iodide] | 96 | 25.7 | 59.6 | > 100 | 25.9 | 68 | 1.4 | 64.6 | – | active only against estrogen receptor-negative breast cancer | 182 to 185 | –
